Data reported in patent publication US20240358721A1, “GASDERMIN-D INHIBITORS AND USES THEREOF FOR TREATING PULMONARY VASO-OCCLUSION” (UNIVERSITY OF PITTSBURGH-OF THE COMMONWEALTH SYSTEM OF …, priority 2021, published 2024).
“Also recorded” adds a separate entry of the source.

Tested on: SCD mice
Assay: qFILM assessment of pulmonary vaso-occlusion in SCD mice IV administered oxy-Hb
Assay type: in vivo, mouse
Details: LDC7559 10 mg/kg, Z-VAD-FMK 0.004 μmol/kg
Text: Quantitative fluorescence intravital lung microscopy (qFILM) was used to assess the absence or presence of platelet-neutrophil aggregate mediated pulmonary vaso-occlusion. Pulmonary microcirculation (pseudo-colored purple), neutrophils (red) and platelets (pseudo-colored green) were labeled in vivo by IV administration of FITC dextran, AF546-anti-Ly6G Ab and V450-anti-CD49b Ab, respectively. […] White arrows denote the direction of blood flow within the pulmonary arterioles. Alveoli are marked with asterisks. Scale bars 20 μm. The diameter of pulmonary arteriole in B-E is ˜22 μm, 32 μm, 31.5 μm, and 31 μm, respectively. […] Refer Online Data Supplement for details. […] The data for mice with SCD IV administered 10 oxy-Hb (n=5 mice; 75 FOVs) are included as black bars in FIGS. 1N and 1O for relative comparison. qFILM FOV size ˜65 536 μm^2. Data represent mean ±SE and are compared using Student t test. *P<0.05 (FIG. 1P) Schematic showing the main findings of the study. The sterile inflammatory milieu (DAMPs, IFN-I signaling, and ROS) in SCD promotes caspase-4 (humans) or caspase-11 (mouse)-dependent cleavage of neutrophil GSDMD into the active form GSDMD-NT, leading to the shedding of NETs in the liver microcirculation. Once shed, these NETs are carried by the blood as cNETs to the lung, where they promote neutrophil-platelet aggregation in the pulmonary arterioles, leading to PVO and lung injury (acute chest syndrome).
Intravital lung microscopy (experimental scheme shown in FIG. 1A) was conducted in live mice to assess whether preventing liver-to-lung embolization of cNETs by inhibiting or deleting GSDMD-signaling leads to amelioration of pulmonary vaso-occlusion. Although large neutrophil-platelet aggregates (marked with dotted ellipses) were seen occluding the arteriolar bottle-necks, leading to impaired blood flow in the lung of SCD mice IV administered 10 μmole/kg oxy-Hb (FIG. 1B), such aggregates were rare in the lung of SCD mice IV administered 10 μmole/kg oxy-Hb with 0.004 μmol/kg pan-caspase inhibitor Z-VAD-FMK (FIG. 1C) or 10 mg/kg GSDMD-NT inhibitor LDC7559 (FIG. 1D) or 20 mg/kg GSDMD-NT inhibitor Necrosulfonamide (FIG. 1E). […] The twofold higher dose of 20 μmole/kg IV oxy-Hb also led to the development of lung vaso-occlusion in WT but not Gsdmd^−/− mice (FIG. 2). […] P-selectin deficiency led to an approximately 50% reduction in pulmonary vaso-occlusion in SCD-Selp^−/− mice administered 10 μmole/kg IV oxy-Hb (FIG. 3), however, IV administration of oxy-Hb with GSDMD-NT inhibitor (LDC7559) led to further threefold (significant) reduction in pulmonary vaso-occlusions per FOV (FIGS. 1N and 4A, and FIG. 5) and absence of large pulmonary vaso-occlusions (area>1000 μm^2) per FOV (FIG. 10) in SCD-Selp^−/− mice.
Quantitative fluorescence intravital lung microscopy (qFILM) has been used widely for in vivo assessment of pulmonary vasoocclusion in mice with SCD [Bennewitz M F et al., (2017); Vats R, Brzoska T, Bennewitz M F, et al. (2020); Vats R, Tutuncuoglu E, Pradhan-Sundd T, Tejero J, Shaw G D, Sundd P. (2020); Bennewitz M F, Tutuncuoglu E, Gudapati S, et al. (2020)] In the current study, qFILM was used to assess pulmonary vaso-occlusion and detect NETs in the intact lung microcirculation of live mice following IV challenge with saline, oxy-hemoglobin (oxy-Hb), hemin, or lipo-polysaccharide with or without pretreatment with N-terminus active domain (GSDMD-NT) inhibitors LDC7559 [Sollberger G, Choidas A, Burn G L, et al. (2018)], NSA [Rathkey J K, Zhao J, Liu Z, et al. (2018)], Disulfiram [Hu J J, Liu X, Xia S, et al. (2020)], or the pan-caspase inhibitor Z-VAD-FMK [Sollberger G, Choidas A, Burn G L, et al. (2018)], haptoglobin [Belcher J D, Chen C, Nguyen J, et al. (2014)], or TLR4-inhibitor (TAK242) [Belcher J D, Chen C, Nguyen J, et al. (2014)]. qFILM was conducted with a Nikon multiphoton excitation fluorescence microscope and an APO LWD 25×water immersion objective with 1.1 NA. […]

[1] = IV 10 μmole/kg oxy-Hb with inhibitor vs oxy-Hb alone, NSA 20 mg/kg
[2] = IV 10 μmole/kg oxy-Hb with inhibitor, NSA 20 mg/kg

Q: How did the “Number of PVOs per Field of View (#PVOs/FOV)” value [1] turn out when `COc1ccccc1-c1cc2n(n1)Cc1ccc(NC(C)=O)cc1OC2` [LDC7559] was run?
A: significantly less; also recorded: significantly reduced

Q: And the “number of large PVOs (with area>1000 μm^2) per FOV” value [1]?
A: significantly less; also recorded: significantly reduced

Q: What about the “blood flow in the lung (rapidly transiting erythrocytes)” value [2] of the same compound?
A: significantly improved

Q: What about the “lung vaso-occlusion in representative qFILM images” value [2] of the same compound?
A: absence of lung vaso-occlusion; also recorded: lack of pulmonary vaso-occlusion

Q: And the “large neutrophil-platelet aggregates occluding the arteriolar bottle-necks in the lung” value (IV 10 μmole/kg oxy-Hb with inhibitor, Necrosulfonamide 20 mg/kg)?
A: rare
